From ChEMBL document CHEMBL2375342, “Novel 5-(benzyloxy)pyridin-2(1H)-one derivatives as potent c-Met inhibitors” (Bioorg Med Chem Lett, 2013)
The source made the active and inactive calls. The calls are words filed in the database; no cut-off is given here.

Key:
[1] = target: T1, Hepatocyte growth factor receptor (Homo sapiens, UniProt P08581); test: Inhibition of c-MET (unknown origin) at 10 uM after 60 mins by ELISA relative to control
[2] = target: T1, Hepatocyte growth factor receptor; test: Inhibition of c-MET (unknown origin) at 1 uM after 60 mins by ELISA
[3] = target: Receptor tyrosine-protein kinase erbB-4 (Homo sapiens, UniProt Q15303); test: Inhibition of ERBB4 (unknown origin)
[4] = target: Vascular endothelial growth factor receptor 1 (Homo sapiens, UniProt P17948); test: Inhibition of FLT1 (unknown origin)
[5] = target: T1, Hepatocyte growth factor receptor; test: Inhibition of c-MET (unknown origin) after 60 mins by ELISA
[6] = target: Fibroblast growth factor receptor 1 (Homo sapiens, UniProt P11362); test: Inhibition of FGFR1 (unknown origin)
[7] = target: Epidermal growth factor receptor (Homo sapiens, UniProt P00533); test: Inhibition of EGFR (unknown origin)
[8] = target: T2, Tyrosine-protein kinase receptor TYRO3 (Homo sapiens, UniProt Q06418); test: Inhibition of TYRO3 (unknown origin)
T2 sequence (Q06418 whole entry): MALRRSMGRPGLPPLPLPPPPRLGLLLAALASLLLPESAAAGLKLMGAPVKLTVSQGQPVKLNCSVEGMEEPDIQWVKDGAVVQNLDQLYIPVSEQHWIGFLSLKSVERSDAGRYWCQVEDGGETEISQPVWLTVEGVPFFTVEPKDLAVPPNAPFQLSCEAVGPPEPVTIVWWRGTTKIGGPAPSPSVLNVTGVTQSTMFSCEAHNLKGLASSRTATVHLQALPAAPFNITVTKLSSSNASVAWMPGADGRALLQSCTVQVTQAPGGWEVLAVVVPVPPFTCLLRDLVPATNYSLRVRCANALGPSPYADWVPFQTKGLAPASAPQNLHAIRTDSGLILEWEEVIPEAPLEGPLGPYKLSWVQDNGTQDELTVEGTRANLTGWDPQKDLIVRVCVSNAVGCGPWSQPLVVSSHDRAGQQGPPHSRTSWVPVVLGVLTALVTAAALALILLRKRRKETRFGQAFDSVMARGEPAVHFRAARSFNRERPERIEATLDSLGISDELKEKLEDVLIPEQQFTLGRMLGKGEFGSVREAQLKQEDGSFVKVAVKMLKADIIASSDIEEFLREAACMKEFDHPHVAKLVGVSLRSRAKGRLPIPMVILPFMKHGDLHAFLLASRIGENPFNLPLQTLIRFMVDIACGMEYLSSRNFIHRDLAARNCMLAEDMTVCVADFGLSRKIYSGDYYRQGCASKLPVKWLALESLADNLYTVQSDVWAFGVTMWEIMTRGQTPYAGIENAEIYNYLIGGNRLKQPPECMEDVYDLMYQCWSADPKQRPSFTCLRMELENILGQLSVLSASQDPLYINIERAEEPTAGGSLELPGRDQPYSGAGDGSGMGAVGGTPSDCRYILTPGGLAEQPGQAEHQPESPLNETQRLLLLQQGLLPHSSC

[9] = target: Epidermal growth factor receptor (Homo sapiens, UniProt P00533, L858R/T790M); test: Inhibition of EGFR T790M/L858R double mutant (unknown origin); type: protein assay
[10] = target: Macrophage-stimulating protein receptor (Homo sapiens, UniProt Q04912); test: Inhibition of RON (unknown origin)
[11] = target: Receptor tyrosine-protein kinase erbB-2 (Homo sapiens, UniProt P04626); test: Inhibition of ERBB2 (unknown origin)
[12] = Antiproliferative activity in human EBC1 cells overexpressing c-MET after 72 hrs by sulforhodamine B assay; type: functional, cell-based; conditions: EBC-1, 72 h
[13] = target: Tyrosine-protein kinase ABL1 (Homo sapiens, UniProt P00519); test: Inhibition of ABL (unknown origin)
[14] = target: Vascular endothelial growth factor receptor 2 (Homo sapiens, UniProt P35968); test: Inhibition of KDR (unknown origin)
[15] = target: Platelet-derived growth factor receptor alpha (Homo sapiens, UniProt P16234); test: Inhibition of PDGFRalpha (unknown origin)
[16] = target: Proto-oncogene tyrosine-protein kinase receptor Ret (Homo sapiens, UniProt P07949); test: Inhibition of RET (unknown origin)
[17] = target: T1, Hepatocyte growth factor receptor; test: Inhibition of c-MET (unknown origin)

T1 sequence (P08581 whole entry): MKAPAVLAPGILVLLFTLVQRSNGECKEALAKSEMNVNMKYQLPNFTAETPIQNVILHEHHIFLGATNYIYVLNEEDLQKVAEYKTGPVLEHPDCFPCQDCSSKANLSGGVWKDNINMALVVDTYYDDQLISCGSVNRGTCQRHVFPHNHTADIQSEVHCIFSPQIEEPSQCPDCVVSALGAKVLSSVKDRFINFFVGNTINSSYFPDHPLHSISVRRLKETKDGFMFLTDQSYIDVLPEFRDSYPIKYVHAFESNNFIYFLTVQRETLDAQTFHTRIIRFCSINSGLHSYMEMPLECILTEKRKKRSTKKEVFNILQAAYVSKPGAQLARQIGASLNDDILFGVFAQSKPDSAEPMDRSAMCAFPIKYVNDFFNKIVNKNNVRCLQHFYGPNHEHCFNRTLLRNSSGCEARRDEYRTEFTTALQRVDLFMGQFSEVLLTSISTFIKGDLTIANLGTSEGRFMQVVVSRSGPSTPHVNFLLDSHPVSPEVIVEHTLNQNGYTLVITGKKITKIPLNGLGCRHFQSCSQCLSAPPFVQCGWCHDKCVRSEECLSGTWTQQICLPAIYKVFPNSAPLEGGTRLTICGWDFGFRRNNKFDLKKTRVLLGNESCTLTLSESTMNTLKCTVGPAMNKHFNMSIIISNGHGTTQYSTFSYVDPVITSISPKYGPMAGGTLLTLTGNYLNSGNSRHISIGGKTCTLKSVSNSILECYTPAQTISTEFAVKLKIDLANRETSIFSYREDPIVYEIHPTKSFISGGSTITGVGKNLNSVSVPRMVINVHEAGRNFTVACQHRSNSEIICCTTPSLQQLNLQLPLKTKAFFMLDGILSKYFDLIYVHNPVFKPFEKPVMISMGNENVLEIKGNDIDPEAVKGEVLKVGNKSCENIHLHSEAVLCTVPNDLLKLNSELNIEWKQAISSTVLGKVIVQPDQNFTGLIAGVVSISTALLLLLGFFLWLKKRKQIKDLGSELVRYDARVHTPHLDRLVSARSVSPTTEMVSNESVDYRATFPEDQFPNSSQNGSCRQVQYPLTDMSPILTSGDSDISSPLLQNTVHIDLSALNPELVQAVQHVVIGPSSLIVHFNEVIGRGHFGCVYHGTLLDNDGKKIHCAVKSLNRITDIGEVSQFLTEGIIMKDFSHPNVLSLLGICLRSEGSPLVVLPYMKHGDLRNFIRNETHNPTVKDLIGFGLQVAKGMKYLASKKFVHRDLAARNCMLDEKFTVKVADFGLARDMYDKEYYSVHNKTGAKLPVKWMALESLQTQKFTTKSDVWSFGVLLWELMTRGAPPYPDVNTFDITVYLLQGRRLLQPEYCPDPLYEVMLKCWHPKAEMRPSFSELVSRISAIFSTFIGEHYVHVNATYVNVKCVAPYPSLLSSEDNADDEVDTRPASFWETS
Chain of Epidermal growth factor receptor (Homo sapiens, UniProt P00533) (P00533 whole entry): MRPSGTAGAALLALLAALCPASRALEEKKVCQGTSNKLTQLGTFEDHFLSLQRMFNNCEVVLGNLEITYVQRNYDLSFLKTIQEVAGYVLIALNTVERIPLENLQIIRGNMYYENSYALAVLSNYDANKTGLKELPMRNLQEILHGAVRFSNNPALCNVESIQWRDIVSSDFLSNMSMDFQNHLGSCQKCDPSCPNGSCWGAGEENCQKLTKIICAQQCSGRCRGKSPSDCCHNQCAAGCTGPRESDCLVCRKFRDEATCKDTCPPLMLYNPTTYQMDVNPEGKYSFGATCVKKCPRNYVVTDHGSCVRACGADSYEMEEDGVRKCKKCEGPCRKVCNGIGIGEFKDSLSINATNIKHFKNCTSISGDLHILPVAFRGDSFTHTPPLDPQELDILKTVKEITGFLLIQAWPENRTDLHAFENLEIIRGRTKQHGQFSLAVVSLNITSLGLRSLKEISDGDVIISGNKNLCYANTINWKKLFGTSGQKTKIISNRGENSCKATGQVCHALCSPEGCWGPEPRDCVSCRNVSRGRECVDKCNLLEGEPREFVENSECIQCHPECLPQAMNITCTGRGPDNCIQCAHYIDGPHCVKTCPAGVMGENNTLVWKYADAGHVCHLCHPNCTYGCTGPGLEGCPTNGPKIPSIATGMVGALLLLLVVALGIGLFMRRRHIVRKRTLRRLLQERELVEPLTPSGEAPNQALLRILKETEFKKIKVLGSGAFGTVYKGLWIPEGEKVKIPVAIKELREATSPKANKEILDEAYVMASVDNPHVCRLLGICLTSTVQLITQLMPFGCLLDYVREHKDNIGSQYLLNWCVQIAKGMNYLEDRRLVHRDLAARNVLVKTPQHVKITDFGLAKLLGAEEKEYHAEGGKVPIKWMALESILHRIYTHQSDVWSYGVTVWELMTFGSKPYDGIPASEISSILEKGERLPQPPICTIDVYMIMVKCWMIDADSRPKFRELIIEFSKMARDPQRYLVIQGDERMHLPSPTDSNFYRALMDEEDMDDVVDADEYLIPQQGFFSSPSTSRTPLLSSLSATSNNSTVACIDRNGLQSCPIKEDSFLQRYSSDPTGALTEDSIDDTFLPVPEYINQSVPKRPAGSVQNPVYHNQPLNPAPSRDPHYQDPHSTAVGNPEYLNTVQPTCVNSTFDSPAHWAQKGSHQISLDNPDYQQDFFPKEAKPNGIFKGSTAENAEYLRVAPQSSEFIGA
Chain of Receptor tyrosine-protein kinase erbB-4 (Q15303 whole entry): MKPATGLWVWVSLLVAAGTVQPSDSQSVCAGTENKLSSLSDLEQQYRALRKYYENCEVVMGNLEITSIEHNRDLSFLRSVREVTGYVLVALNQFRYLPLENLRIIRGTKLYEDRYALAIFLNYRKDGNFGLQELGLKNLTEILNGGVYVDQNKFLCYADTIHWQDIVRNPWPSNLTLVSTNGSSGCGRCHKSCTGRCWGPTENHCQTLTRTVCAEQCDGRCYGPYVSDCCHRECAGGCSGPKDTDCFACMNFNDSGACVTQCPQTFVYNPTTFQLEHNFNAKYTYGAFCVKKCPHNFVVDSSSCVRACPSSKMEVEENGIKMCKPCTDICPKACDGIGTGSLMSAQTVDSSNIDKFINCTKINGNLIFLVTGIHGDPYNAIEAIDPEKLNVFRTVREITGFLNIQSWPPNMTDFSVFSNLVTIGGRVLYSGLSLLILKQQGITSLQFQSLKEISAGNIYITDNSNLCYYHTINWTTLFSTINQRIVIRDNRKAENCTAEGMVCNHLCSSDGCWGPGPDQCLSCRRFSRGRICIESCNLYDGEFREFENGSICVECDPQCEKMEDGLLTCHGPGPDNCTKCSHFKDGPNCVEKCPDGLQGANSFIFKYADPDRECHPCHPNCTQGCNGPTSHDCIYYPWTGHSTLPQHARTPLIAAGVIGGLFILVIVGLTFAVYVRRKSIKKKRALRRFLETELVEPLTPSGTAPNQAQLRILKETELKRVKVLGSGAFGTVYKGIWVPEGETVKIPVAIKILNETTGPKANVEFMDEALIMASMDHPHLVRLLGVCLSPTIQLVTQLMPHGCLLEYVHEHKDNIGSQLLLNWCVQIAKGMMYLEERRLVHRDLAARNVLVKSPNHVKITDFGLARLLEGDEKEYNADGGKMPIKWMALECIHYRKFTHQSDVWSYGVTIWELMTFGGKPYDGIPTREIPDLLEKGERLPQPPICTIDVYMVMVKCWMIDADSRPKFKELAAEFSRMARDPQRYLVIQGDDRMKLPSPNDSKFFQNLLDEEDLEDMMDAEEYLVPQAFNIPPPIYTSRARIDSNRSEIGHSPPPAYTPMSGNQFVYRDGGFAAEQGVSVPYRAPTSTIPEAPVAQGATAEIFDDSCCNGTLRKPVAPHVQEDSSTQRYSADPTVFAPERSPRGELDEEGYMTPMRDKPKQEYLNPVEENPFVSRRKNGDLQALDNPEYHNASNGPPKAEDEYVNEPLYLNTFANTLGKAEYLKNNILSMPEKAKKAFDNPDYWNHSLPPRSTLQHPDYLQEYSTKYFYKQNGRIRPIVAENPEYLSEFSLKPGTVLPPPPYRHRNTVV
Chain of Epidermal growth factor receptor (Homo sapiens, UniProt P00533, L858R/T790M) (P00533 25-1210 T790M/L858R limits assumed): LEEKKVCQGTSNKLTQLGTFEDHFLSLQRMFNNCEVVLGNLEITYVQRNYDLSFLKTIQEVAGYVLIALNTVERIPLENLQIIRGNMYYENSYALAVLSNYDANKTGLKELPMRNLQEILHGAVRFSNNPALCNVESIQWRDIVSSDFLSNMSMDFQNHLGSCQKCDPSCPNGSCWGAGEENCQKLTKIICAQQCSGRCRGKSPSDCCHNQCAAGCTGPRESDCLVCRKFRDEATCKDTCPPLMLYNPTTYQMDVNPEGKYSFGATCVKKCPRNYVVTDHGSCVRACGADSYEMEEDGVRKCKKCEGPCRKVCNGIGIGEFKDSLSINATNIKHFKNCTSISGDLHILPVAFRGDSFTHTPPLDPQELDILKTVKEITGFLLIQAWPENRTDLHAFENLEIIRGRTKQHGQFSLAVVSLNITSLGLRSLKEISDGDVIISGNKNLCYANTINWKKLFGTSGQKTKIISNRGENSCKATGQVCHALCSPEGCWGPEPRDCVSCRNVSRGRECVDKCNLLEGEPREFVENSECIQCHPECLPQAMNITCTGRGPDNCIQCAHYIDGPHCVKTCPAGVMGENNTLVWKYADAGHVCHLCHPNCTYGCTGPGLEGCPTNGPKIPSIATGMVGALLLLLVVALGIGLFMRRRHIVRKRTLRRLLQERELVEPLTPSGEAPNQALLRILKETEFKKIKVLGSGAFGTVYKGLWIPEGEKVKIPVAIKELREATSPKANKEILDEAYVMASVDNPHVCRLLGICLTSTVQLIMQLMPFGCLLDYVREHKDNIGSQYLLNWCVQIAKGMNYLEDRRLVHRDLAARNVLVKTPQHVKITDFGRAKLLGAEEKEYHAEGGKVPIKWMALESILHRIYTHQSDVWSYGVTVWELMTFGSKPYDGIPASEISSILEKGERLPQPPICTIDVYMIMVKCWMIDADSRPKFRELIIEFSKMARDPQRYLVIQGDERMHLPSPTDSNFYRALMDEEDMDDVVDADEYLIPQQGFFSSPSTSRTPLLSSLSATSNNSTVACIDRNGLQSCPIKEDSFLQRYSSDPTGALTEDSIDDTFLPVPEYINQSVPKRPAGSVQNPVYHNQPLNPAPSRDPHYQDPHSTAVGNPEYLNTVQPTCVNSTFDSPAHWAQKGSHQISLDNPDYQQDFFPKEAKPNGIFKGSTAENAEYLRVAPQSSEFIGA

C[C@@H](Oc1c[nH]c(=O)c(C(=O)NC2CCN(C)CC2)c1)c1c(Cl)ccc(F)c1Cl
inhibition [1]: < 50%

CCN1CCN(c2ccc(NC(=O)c3cc(O[C@H](C)c4c(Cl)ccc(F)c4Cl)c[nH]c3=O)c(OC)c2)CC1
inhibition [2]: inactive

C[C@@H](Oc1c[nH]c(=O)c(C(=O)Nc2ccc(N3CCN(C)CC3)cc2)c1)c1c(Cl)ccc(F)c1Cl
IC50 [3]: > 1000 nM | IC50 [4]: > 1000 nM | IC50 [5]: 12 nM | IC50 [6]: > 1000 nM | IC50 [7]: > 1000 nM | IC50 [8]: > 1000 nM | IC50 [9]: > 1000 nM | IC50 [10]: 446 nM | IC50 [11]: > 1000 nM | IC50 [12]: 2200 nM | IC50 [13]: 281 nM | IC50 [14]: > 1000 nM | IC50 [15]: > 1000 nM | IC50 [16]: > 1000 nM

C[C@@H](Oc1c[nH]c(=O)c(C(=O)Nc2cnn(CCO)c2)c1)c1c(Cl)ccc(F)c1Cl
IC50 [12]: 1100 nM

COc1ncc(O[C@H](C)c2c(Cl)ccc(F)c2Cl)cc1C(=O)Nc1ccc(N2CCN(C)CC2)cc1
inhibition [2]: inactive

C[C@@H](Oc1c[nH]c(=O)c(C(=O)NCc2ccc(N3CCOCC3)cc2)c1)c1c(Cl)ccc(F)c1Cl
inhibition [1]: < 50%

C[C@@H](Oc1c[nH]c(=O)c(C(=O)Nc2ccc(N3CCN(C)CC3)nc2)c1)c1c(Cl)ccc(F)c1Cl
IC50 [12]: 3900 nM

C[C@@H](Oc1c[nH]c(=O)c(C(=O)Nc2ccc(CN3CCN(C)CC3)cc2)c1)c1c(Cl)ccc(F)c1Cl
IC50 [12]: 1100 nM

C[C@@H](Oc1c[nH]c(=O)c(C(=O)Nc2ccc(OCCN3CCOCC3)cc2)c1)c1c(Cl)ccc(F)c1Cl
IC50 [12]: 5900 nM

C[C@@H](Oc1c[nH]c(=O)c(C(=O)Nc2cnn(C3CCNCC3)c2)c1)c1c(Cl)ccc(F)c1Cl
IC50 [12]: 1000 nM

C[C@@H](Oc1cc(C(=O)Nc2ccc(C(=O)N3CCN(C)CC3)cc2)nnc1N)c1c(Cl)ccc(F)c1Cl
IC50 [17]: 0.69 nM

C[C@@H](Oc1c[nH]c(=O)c(C(=O)NCc2ccc(NS(C)(=O)=O)cc2)c1)c1c(Cl)ccc(F)c1Cl
inhibition [1]: < 50%

C[C@@H](Oc1c[nH]c(=O)c(C(=O)Nc2cnn(C)c2)c1)c1c(Cl)ccc(F)c1Cl
IC50 [12]: 9800 nM

C[C@@H](Oc1c[nH]c(=O)c(C(=O)Nc2ccc3c(c2)CN(CCN(C)C)C3=O)c1)c1c(Cl)ccc(F)c1Cl
IC50 [12]: 2600 nM
